Data published in PubChem BioAssay (NCI).
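A five-concentration, 48-hour dose response in 96-well plates underlies each endpoint, interpolated linearly between surrounding concentrations. At the GI50, growth is halved. TGI marks complete inhibition of growth.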

Experiments:
Assay in all cases: NCI-60 cell line screen, 48 h
UACC-257 melanoma = system: UACC-257 melanoma
DU-145 prostate = system: DU-145 prostate
PC-3 prostate = system: PC-3 prostate
CAKI-1 renal = system: CAKI-1 renal
SN12C renal = system: SN12C renal
SW-620 colon = system: SW-620 colon
NCI-H23 lung = system: NCI-H23 lung
HS 578T breast = system: HS 578T breast
NCI-H522 lung = system: NCI-H522 lung
UACC-62 melanoma = system: UACC-62 melanoma
SK-MEL-2 melanoma = system: SK-MEL-2 melanoma
SNB-75 CNS = system: SNB-75 CNS
SF-295 CNS = system: SF-295 CNS
MCF7 breast = system: MCF7 breast
OVCAR-4 ovarian = system: OVCAR-4 ovarian
RPMI-8226 leukemia = system: RPMI-8226 leukemia
HOP-62 NSCLC = system: HOP-62 NSCLC
SR leukemia = system: SR leukemia
SK-MEL-5 melanoma = system: SK-MEL-5 melanoma
A498 renal = system: A498 renal
COLO 205 colon = system: COLO 205 colon
K-562 leukemia = system: K-562 leukemia
OVCAR-5 ovarian = system: OVCAR-5 ovarian
CCRF-CEM leukemia = system: CCRF-CEM leukemia
HL-60(TB) leukemia = system: HL-60(TB) leukemia
SF-539 CNS = system: SF-539 CNS
BT-549 breast = system: BT-549 breast
SF-268 CNS = system: SF-268 CNS
HT29 colon = system: HT29 colon
ACHN renal = system: ACHN renal
NCI-H226 lung = system: NCI-H226 lung
MDA-MB-435 = system: MDA-MB-435
SK-MEL-28 melanoma = system: SK-MEL-28 melanoma
HCC-2998 colon = system: HCC-2998 colon
HOP-92 NSCLC = system: HOP-92 NSCLC
SNB-19 CNS = system: SNB-19 CNS
NCI-H460 lung = system: NCI-H460 lung
T-47D breast = system: T-47D breast
EKVX NSCLC = system: EKVX NSCLC
HCT-15 colon = system: HCT-15 colon
MALME-3M melanoma = system: MALME-3M melanoma
KM12 colon = system: KM12 colon
MDA-MB-231 breast = system: MDA-MB-231 breast
M14 melanoma = system: M14 melanoma
UO-31 renal = system: UO-31 renal
RXF 393 renal = system: RXF 393 renal
IGROV1 ovarian = system: IGROV1 ovarian
TK-10 renal = system: TK-10 renal

`NCCCNc1nc2ccccc2c2c(=O)c3cccc(F)c3sc12` was tested, and the GI50 (UACC-257 melanoma) was 1970 nM, the TGI (UACC-257 melanoma) was 3810 nM and the GI50 (DU-145 prostate) was 1230 nM. The TGI (DU-145 prostate) was 2530 nM, the GI50 (PC-3 prostate) was 1670 nM and the TGI (PC-3 prostate) was 3260 nM. For the same compound, the GI50 (CAKI-1 renal) was 1420 nM, the TGI (CAKI-1 renal) was 2750 nM and the GI50 (SN12C renal) was 1280 nM. The TGI (SN12C renal) was 2700 nM, the GI50 (SW-620 colon) was 1100 nM and the TGI (SW-620 colon) was 2490 nM. The GI50 (NCI-H23 lung) was 1540 nM, the TGI (NCI-H23 lung) was 3030 nM and the GI50 (HS 578T breast) was 1720 nM. It also gave a TGI (HS 578T breast) of 3970 nM, a GI50 (NCI-H522 lung) of 1610 nM and a TGI (NCI-H522 lung) of 3280 nM. For the same compound, the GI50 (UACC-62 melanoma) was 1670 nM, the TGI (UACC-62 melanoma) was 3130 nM and the GI50 (SK-MEL-2 melanoma) was 1770 nM. The TGI (SK-MEL-2 melanoma) was 3660 nM, the GI50 (SNB-75 CNS) was 1610 nM and the TGI (SNB-75 CNS) was 3210 nM. For the same compound, the GI50 (SF-295 CNS) was 1740 nM, the TGI (SF-295 CNS) was 3190 nM and the GI50 (MCF7 breast) was 1010 nM. The TGI (MCF7 breast) was 2400 nM, the GI50 (OVCAR-4 ovarian) was 1760 nM and the TGI (OVCAR-4 ovarian) was 3580 nM. The GI50 (RPMI-8226 leukemia) was 2030 nM, the TGI (RPMI-8226 leukemia) was 4750 nM and the GI50 (HOP-62 NSCLC) was 1500 nM. For the same compound, the TGI (HOP-62 NSCLC) was 3150 nM, the GI50 (SR leukemia) was 1570 nM and the TGI (SR leukemia) was greater than 100000 nM. The GI50 (SK-MEL-5 melanoma) was 1690 nM, the TGI (SK-MEL-5 melanoma) was 3080 nM and the GI50 (A498 renal) was 1670 nM. The TGI (A498 renal) was 3100 nM, the GI50 (COLO 205 colon) was 1600 nM and the TGI (COLO 205 colon) was 3690 nM. The GI50 (K-562 leukemia) was 1360 nM, the TGI (K-562 leukemia) was 4150 nM and the GI50 (OVCAR-5 ovarian) was 1600 nM. It also gave a TGI (OVCAR-5 ovarian) of 3010 nM, a GI50 (CCRF-CEM leukemia) of 1420 nM and a TGI (CCRF-CEM leukemia) of 4160 nM. It also gave a GI50 (HL-60(TB) leukemia) of 1880 nM, a TGI (HL-60(TB) leukemia) of 3950 nM and a GI50 (SF-539 CNS) of 1590 nM. It also gave a TGI (SF-539 CNS) of 2970 nM, a GI50 (BT-549 breast) of 11500 nM and a TGI (BT-549 breast) of 29600 nM. The GI50 (SF-268 CNS) was 1470 nM, the TGI (SF-268 CNS) was 3350 nM and the GI50 (HT29 colon) was 1250 nM. It also gave a TGI (HT29 colon) of 2690 nM, a GI50 (ACHN renal) of 1200 nM and a TGI (ACHN renal) of 2430 nM. The GI50 (NCI-H226 lung) was 1450 nM, the TGI (NCI-H226 lung) was 3060 nM and the GI50 (MDA-MB-435) was 1770 nM. For the same compound, the TGI (MDA-MB-435) was 3390 nM, the GI50 (SK-MEL-28 melanoma) was 1770 nM and the TGI (SK-MEL-28 melanoma) was 3230 nM. The GI50 (HCC-2998 colon) was 1640 nM, the TGI (HCC-2998 colon) was 3410 nM and the GI50 (HOP-92 NSCLC) was 1290 nM. For the same compound, the TGI (HOP-92 NSCLC) was 3390 nM, the GI50 (SNB-19 CNS) was 1570 nM and the TGI (SNB-19 CNS) was 3000 nM. It also gave a GI50 (NCI-H460 lung) of 493 nM, a TGI (NCI-H460 lung) of 1770 nM and a GI50 (T-47D breast) of 1580 nM. It also gave a TGI (T-47D breast) of 3740 nM, a GI50 (EKVX NSCLC) of 1500 nM and a TGI (EKVX NSCLC) of 3000 nM. It also gave a GI50 (HCT-15 colon) of 1130 nM, a TGI (HCT-15 colon) of 2390 nM and a GI50 (MALME-3M melanoma) of 1570 nM. For the same compound, the TGI (MALME-3M melanoma) was 3050 nM, the GI50 (KM12 colon) was 1610 nM and the TGI (KM12 colon) was 3040 nM. It also gave a GI50 (MDA-MB-231 breast) of 1280 nM, a TGI (MDA-MB-231 breast) of 2750 nM and a GI50 (M14 melanoma) of 1800 nM. It also gave a TGI (M14 melanoma) of 3560 nM, a GI50 (UO-31 renal) of 1010 nM and a TGI (UO-31 renal) of 2240 nM. It also gave a GI50 (RXF 393 renal) of 1430 nM, a TGI (RXF 393 renal) of 2810 nM and a GI50 (IGROV1 ovarian) of 798 nM. It also gave a TGI (IGROV1 ovarian) of 2220 nM, a GI50 (TK-10 renal) of 1940 nM and a TGI (TK-10 renal) of 3470 nM.
